Calls of active or inactive are those of the source.
target: T1, Heat shock factor protein 1 (Mus musculus, UniProt P38532); assay: HSF1 potentiators in luciferase reporter cells, confirmation, cell-based, NIH3T3, luminescence, dose retest (AID 435004); type: functional; conditions: not given;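 note: stress induced by proteasome inhibitor MG132 added 30 min after compound; luciferase reporter driven by HSF1 response element in NIH3T3 cells; actives raise luminescence as potentiators of the MG132 stress response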
T1 sequence (P38532 whole entry): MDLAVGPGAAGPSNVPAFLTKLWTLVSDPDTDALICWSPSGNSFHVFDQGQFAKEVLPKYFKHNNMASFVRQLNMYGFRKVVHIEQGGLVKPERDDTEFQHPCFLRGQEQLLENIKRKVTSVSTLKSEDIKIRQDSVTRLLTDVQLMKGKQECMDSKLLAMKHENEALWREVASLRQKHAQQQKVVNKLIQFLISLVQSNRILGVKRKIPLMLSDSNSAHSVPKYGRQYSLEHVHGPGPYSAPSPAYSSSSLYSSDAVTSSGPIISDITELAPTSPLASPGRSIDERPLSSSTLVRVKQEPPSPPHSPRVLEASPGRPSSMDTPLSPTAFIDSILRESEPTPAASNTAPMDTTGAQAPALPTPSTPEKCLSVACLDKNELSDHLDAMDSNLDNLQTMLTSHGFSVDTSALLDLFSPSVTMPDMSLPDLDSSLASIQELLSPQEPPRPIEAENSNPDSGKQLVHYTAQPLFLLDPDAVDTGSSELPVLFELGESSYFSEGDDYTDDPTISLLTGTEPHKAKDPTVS

Structure (SMILES) | EC50
CN(Cc1cccc2cnccc12)C(=O)c1cc(COc2ccc(F)cc2F)on1 | > 260 µM (inactive)
COc1cc(/C=N/Nc2snc(SC)c2C#N)ccc1O | > 260 µM (inactive)
Fc1ccc(Sc2ccccc2CNC2=NCCN2)cc1 | > 260 µM (inactive)
CC1(C)CC(CCN)(Cc2ccccc2Cl)CCO1 (stereo unspecified) | > 260 µM (inactive)
Cc1ccc(C)c(S(=O)(=O)N2CCCCC2CCNC(=O)C(=O)NCCc2ccco2)c1 (stereo unspecified) | > 260 µM (inactive)
Cc1cc(OCC(=O)N(Cc2ccco2)C2CCS(=O)(=O)C2)cc(C)c1Cl (stereo unspecified) | > 260 µM (inactive)
COCCn1c(C)cc(C(=O)COC(=O)c2ccc(-n3nc(C)cc3C)cc2)c1C | > 260 µM (inactive)
O=C(COC(=O)c1ccc(S(=O)(=O)NCc2ccco2)cc1)Nc1ccccc1OC(F)F | > 260 µM (inactive)
Nc1nnnn1CC(=O)N/N=C/c1ccccn1 | > 260 µM (inactive)
O=C(COC(=O)/C=C/c1cccc([N+](=O)[O-])c1)NCc1ccco1 | > 260 µM (inactive)

target: T2, Microphthalmia-associated transcription factor (Homo sapiens, UniProt O75030); assay: TRPM1 promoter luciferase signal decrease, dose response, MITF inhibitor project, cell-based, SK-MEL-5, cherry-picked, set 3 (AID 493073); type: functional; conditions: not given
T2 sequence (O75030 whole entry): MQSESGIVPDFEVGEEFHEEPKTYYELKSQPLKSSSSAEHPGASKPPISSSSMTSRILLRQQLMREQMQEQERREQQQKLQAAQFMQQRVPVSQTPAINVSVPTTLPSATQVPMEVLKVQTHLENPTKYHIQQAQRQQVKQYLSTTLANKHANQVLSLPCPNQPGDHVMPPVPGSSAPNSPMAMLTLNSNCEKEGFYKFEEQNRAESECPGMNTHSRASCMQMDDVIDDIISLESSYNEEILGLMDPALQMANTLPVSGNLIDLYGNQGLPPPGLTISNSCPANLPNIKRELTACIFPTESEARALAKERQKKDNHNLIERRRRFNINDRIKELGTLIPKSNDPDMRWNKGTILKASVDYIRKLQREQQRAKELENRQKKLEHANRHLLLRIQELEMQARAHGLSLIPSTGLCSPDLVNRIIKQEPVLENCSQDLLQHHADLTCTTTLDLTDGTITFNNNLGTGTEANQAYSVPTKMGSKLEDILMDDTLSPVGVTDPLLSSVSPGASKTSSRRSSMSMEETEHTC

Structure (SMILES) | AC50
CC(C)(C)C(=O)Cn1ncc(Cl)c(Cl)c1=O | 10.4 µM (active)

target: T3, Protein RecA (Mycobacterium tuberculosis, UniProt P9WHJ3); assay: Fluorescence Cell-Free Homogeneous Dose Retest to Identify Inhibitors of RecA-Intein Splicing Activity. [Related pubchem assays (depositor defined):AID2097, AID2223, AID489010, AID492950]; type: functional; conditions: not given
T3 sequence (P9WHJ3 whole entry): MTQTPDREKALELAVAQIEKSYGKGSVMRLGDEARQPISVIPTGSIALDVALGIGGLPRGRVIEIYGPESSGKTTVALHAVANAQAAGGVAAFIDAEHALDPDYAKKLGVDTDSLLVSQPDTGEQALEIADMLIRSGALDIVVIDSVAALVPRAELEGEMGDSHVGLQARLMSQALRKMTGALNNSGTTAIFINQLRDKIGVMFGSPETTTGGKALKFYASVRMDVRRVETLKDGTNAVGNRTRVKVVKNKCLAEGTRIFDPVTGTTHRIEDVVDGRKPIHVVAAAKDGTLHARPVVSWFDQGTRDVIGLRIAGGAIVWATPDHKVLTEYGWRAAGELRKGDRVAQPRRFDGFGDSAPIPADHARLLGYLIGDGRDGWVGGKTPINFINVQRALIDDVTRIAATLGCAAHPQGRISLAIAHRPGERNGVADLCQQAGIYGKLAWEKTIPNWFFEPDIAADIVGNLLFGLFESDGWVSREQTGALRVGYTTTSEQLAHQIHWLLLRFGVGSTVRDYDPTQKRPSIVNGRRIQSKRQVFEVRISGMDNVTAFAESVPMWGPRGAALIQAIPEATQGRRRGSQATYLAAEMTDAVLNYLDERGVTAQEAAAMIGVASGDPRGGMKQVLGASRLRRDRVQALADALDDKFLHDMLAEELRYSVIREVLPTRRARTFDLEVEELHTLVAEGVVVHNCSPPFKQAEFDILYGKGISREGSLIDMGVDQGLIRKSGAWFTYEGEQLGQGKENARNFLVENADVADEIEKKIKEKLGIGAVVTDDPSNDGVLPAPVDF

Structure (SMILES) | EC50
CCc1nnc(N/N=C/c2cc(Br)c(O)cc2O)n1N | 9.31 µM (active)

target: T4, Calpain-2 catalytic subunit (Sus scrofa, UniProt P43367); assay: pig calpain II inhibitor potency, dose response, biochemical, fluorogenic peptide substrate (AID 1420); type: functional; conditions: not given
T4 sequence (P43367 whole entry): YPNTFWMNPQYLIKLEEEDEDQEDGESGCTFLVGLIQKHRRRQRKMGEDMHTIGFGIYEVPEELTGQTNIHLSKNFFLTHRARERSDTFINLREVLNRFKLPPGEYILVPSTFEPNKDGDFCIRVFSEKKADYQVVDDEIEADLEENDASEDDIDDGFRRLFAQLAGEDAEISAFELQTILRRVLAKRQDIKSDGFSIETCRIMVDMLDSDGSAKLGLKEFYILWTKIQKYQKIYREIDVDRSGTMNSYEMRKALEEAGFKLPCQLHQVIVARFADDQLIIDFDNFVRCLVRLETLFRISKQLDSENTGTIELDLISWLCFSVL

Structure (SMILES) | IC50
COc1ccc(Cn2nc(-c3ccccc3)c(N3CCCCC3)cc2=O)cc1 | 10.6 µM (not active)
CC(C)(C)OC(=O)NCCCCCNC(=O)c1[nH]cnc1C(=O)N[C@@H](CCCCNC(=O)OC(C)(C)C)C(=O)OC(C)(C)C | 10.7 µM (not active)
O=C1c2ccccc2C(=O)N1CCc1csc(-c2cccc(Cl)c2)n1 | 3.44 µM (not active)
CCCN(CCC)S(=O)(=O)c1ccc(NC(=O)COc2ccccc2)cc1 | 3.3 µM (not active)
CCN1CCN(c2cc(C)c3cc(NC(S)=NCc4cccs4)ccc3n2)CC1 | 10 µM (not active)
CCC(C(=O)NC1CCCC1)N(Cc1ccco1)C(=O)Cn1nnc(-c2ccc(C)cc2)n1 (stereo unspecified) | 16.3 µM (not active)
Cc1oc2c(c1C(=O)Nc1cccc3ccccc13)CCCC2 | > 50 µM (not active)
CC(=O)Nc1cc(C(=O)N2CCN(C)CC2)ccc1S(=O)(=O)c1ccc(C)cc1 | 0.796 µM (not active)
CCOC(=O)CCNC(=O)Nc1ccc2nc(C)n(Cc3cccc(Cl)c3)c(=O)c2c1 | 6.83 µM (not active)

target: T5, Replicative DNA helicase DnaB (Mycobacterium tuberculosis, UniProt P9WMR3); assay: DnaB intein splicing inhibitors, dose response, biochemical, cell-free fluorescence (AID 449749); type: functional; conditions: not given
T5 sequence (P9WMR3 whole entry): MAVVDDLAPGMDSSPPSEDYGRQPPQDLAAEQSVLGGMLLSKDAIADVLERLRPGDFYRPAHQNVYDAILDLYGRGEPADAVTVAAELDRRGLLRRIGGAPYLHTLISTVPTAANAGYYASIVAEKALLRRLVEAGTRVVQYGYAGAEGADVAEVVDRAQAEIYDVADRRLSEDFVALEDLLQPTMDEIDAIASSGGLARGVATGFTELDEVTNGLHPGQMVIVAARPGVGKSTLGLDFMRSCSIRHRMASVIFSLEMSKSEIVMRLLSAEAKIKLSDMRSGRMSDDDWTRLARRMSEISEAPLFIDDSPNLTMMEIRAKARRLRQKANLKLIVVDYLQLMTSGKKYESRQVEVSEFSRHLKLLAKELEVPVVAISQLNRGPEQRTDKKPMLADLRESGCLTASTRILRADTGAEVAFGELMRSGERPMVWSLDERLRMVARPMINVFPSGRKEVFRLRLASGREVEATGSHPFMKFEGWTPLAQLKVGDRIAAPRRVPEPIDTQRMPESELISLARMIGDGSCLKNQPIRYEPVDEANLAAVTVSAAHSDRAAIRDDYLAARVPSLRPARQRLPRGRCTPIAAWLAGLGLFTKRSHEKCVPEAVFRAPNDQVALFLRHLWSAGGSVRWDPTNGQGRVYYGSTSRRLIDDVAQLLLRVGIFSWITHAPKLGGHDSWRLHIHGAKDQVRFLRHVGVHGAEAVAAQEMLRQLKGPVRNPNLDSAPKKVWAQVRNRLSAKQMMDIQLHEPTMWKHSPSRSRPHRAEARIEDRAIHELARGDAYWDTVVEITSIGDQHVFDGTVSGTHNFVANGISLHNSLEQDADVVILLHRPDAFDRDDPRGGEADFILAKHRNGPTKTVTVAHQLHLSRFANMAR

Structure (SMILES) | AC50
CCc1nnc(N/N=C/c2cc(Br)c(O)cc2O)n1N | > 380 µM (inactive)

target: Nonstructural protein 1 (Influenza A virus, UniProt Q194T2); type: functional, Influenza A virus (A/California/07/2009(H1N1)); conditions: not given
Sequence (Q194T2 whole entry): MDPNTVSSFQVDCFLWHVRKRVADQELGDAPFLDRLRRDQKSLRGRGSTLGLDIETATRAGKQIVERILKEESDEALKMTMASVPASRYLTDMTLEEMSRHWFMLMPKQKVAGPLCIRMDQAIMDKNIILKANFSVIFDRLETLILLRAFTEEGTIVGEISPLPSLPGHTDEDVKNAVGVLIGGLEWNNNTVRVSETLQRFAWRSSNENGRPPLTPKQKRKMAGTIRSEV

Structure (SMILES) | IC50
CCc1nnc(N/N=C/c2cc(Br)c(O)cc2O)n1N | 6.41 µM (active)

target: T6, Rac GTPase-activating protein 1 (Homo sapiens, UniProt Q9H0H5); assay: MgcRacGAP GTPase-activating activity inhibitors, confirmation, biochemical, ADP Hunter fluorescence, primary and confirmatory (AID 624330); type: functional; conditions: not given
T6 sequence (Q9H0H5 whole entry): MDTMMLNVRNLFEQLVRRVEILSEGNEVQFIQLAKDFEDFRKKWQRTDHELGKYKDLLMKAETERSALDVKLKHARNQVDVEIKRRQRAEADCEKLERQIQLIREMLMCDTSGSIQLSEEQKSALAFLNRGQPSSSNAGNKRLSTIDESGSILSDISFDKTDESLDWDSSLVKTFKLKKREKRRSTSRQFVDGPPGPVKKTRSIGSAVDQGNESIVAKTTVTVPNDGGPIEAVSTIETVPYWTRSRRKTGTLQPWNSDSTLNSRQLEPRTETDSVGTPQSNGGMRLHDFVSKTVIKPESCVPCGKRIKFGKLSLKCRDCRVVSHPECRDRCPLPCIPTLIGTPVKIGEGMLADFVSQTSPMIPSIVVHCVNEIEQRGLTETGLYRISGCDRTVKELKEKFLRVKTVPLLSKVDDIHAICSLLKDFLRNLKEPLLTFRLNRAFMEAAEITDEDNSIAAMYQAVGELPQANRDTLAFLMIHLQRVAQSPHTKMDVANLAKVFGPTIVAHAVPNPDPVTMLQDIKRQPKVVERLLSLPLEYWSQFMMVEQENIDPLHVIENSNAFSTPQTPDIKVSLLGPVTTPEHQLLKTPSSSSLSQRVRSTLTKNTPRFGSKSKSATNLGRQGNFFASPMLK

Structure (SMILES) | IC50
CCc1nnc(N/N=C/c2cc(Br)c(O)cc2O)n1N | 66.2 µM (active)

target: Cytochrome P450 3A4 (Homo sapiens, UniProt P08684); conditions: Potency;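 note: confirmatory qHTS run detecting inhibitors and substrates of CYP3A4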
Sequence (P08684 whole entry): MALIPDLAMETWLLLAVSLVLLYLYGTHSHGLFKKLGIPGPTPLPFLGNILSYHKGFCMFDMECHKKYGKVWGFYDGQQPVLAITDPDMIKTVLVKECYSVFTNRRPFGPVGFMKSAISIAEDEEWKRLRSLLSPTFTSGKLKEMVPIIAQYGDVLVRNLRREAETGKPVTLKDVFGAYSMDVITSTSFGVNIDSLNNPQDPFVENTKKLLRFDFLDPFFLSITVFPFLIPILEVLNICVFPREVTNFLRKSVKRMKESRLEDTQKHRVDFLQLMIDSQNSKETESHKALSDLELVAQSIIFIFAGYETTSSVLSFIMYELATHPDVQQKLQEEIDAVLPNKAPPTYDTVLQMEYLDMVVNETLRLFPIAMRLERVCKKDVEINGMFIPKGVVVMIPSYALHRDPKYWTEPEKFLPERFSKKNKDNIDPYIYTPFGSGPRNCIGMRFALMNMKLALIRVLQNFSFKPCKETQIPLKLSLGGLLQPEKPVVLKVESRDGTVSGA

Structure (SMILES) | AC50
C[C@]12CCC(=O)C[C@@H]1CC[C@@H]1[C@@H]2CC[C@]2(C)[C@@H](O)CC[C@@H]12 [STANOLONE] | 15.8 µM (inconclusive)
Cc1cc(=O)oc2cc(O)c(O)cc12 [4-METHYLESCULETIN] | 15.8 µM (inconclusive)
CC1=C(/C=C/C(C)=C/C=C/C(C)=C/CO)C(C)(C)CCC1 [RETINOL] | 15.8 µM (inconclusive)
Nc1cc(Cl)cc(Cl)c1 | 31.6 µM (inconclusive)
Nc1cc([N+](=O)[O-])ccc1C(=O)O | 10 µM (inconclusive)
CC1Cc2c(COc3ccccc3)nc3c(c2CO1)CN(CCOc1ccccc1)CC3 (stereo unspecified) | 3.98 µM (inconclusive)
O=[N+]([O-])c1ccc2cn[nH]c2c1 | 12.6 µM (inconclusive)
COCCNC(=O)[C@@]1(Cc2ccccc2)C=C[C@@H](C)N1C(C)=O | 20 µM (inconclusive)
Cc1ccc(Cl)cc1N | 31.6 µM (inconclusive)
Cc1ccc(N)cc1[N+](=O)[O-] | 31.6 µM (inconclusive)

tested on: not listed separately; assay: cytotoxicity toward NIH3T3 fibroblasts, dose response, counter-screen, cell-based, ATP luminescence, mouse fibroblasts (AID 2010); type: functional; conditions: not given;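 note: cells exposed to compound for about 90 hours before reading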

Structure (SMILES) | EC50
Fc1ccc(Sc2ccccc2CNC2=NCCN2)cc1 | > 60 µM (not active)

tested on: not listed separately; assay: inhibitors of intracellular T. cruzi replication, confirmation, NIH3T3 host cells, beta-gal luminescence (AID 2044); type: functional, cell-based; conditions: not given;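 note: intracellular parasites grown in NIH/3T3 mouse fibroblasts as host cells; luminescent beta-galactosidase reporter signal from transgenic T. cruzi replicating inside host cells; inhibitors lower the luminescence signal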

Structure (SMILES) | EC50
Fc1ccc(Sc2ccccc2CNC2=NCCN2)cc1 | 1.49 µM (active)

Source: ChEMBL document CHEMBL1201862, “PubChem BioAssay data set” (2004)
